The record followed here is patent US8883801B2, “Substituted pyrazolo[1,5-a]pyrimidines as mTOR inhibitors” (Merck Sharp & Dohme Corp., priority 2010, dated 2014).

By IC50 is commonly meant the concentration that gives 50% inhibition.

For experiment [1], the target named is human mTOR enzyme (Homo sapiens, UniProt P42345). In words: HTRF mTOR enzyme (kinase) assay. It counts as biochemical. Particulars: rated class; 5 μM ATP, 0.2 μM GST-S6K; read-out: hMTOR IC50.
The test system of experiment [2] is mTORC2 activity: phosphorylated AKT Ser473 (pAKT S473) in PC3 cells. Kind of experiment: mTOR target engagement assay, immunofluorescent cell-based, mTORC2 readout. Particulars: Homo sapiens, PC-3, 1.5 h, rated class, 90 min treatment. In short, it runs like this: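 Read-out is immunofluorescence intensity, normalized to DMSO-only wells and fitted to a sigmoidal Hill equation for IC50. The mTORC1 arm probes phospho-4E-BP1 Thr37/46 and the mTORC2 arm phospho-AKT Ser473.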

human mTOR enzyme, sequence (P42345 1360-2549 limits assumed): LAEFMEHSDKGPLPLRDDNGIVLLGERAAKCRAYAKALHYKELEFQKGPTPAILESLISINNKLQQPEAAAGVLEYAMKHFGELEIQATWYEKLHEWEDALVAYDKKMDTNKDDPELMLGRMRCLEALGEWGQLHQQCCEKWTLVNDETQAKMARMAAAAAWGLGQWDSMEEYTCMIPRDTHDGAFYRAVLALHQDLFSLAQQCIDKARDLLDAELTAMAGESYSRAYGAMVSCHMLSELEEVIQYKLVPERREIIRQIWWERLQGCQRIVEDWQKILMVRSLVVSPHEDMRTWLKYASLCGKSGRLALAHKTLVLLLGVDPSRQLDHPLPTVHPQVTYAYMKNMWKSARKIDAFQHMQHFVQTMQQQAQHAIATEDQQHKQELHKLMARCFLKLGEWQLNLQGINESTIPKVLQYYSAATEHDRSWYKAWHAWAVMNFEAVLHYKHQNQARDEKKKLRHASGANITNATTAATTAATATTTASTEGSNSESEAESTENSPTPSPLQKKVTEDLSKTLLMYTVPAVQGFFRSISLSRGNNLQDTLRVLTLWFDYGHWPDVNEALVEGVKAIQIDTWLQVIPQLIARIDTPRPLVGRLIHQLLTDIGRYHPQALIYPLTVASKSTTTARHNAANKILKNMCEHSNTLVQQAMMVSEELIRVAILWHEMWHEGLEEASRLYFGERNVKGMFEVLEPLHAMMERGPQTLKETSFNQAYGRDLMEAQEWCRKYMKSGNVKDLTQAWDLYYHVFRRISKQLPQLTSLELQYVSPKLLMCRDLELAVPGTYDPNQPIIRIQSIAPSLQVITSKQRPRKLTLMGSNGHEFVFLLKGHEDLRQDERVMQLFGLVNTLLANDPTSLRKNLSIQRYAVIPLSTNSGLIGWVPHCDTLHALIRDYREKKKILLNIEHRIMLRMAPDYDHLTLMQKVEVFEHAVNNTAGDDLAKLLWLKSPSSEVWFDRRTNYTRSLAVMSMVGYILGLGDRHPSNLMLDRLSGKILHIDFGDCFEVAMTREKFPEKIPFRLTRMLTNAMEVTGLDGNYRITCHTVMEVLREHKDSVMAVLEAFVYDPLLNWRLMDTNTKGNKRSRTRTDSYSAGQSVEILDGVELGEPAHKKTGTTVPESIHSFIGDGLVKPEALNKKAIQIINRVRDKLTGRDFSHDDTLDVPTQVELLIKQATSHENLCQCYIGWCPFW

In the case of `CS[C@]1(C(=O)O)CC[C@@H](c2nc3c(-c4cnn(-c5ccccc5)c4)cnn3c(N)c2Br)CC1` [Compound 10, (1R,4R)-4-(7-amino-6-bromo-3-(1-phenyl-1H-pyrazol-4-yl)pyrazolo[1,5-a]pyrimidin-5-yl)-1-(methylthio)-cyclohexane-carboxylic acid], the IC50 in experiment [1] was 0.001 to 0.1 µM; in experiment [2] it was 2 to 5 µM.
Consider `CC(=O)c1c(C2CCC(O)(CO)CC2)nc2c(-c3ccc(-c4cncs4)nc3)cnn2c1N` (centres unmarked) [Compound 157, 1-(7-amino-5-(4-hydroxy-4-(hydroxymethyl)-cyclohexyl)-3-(6-(thiazol-5-yl)pyridin-3-yl)pyrazolo[1,5-a]pyrimidin-6-yl)ethanone], for which the figures for the IC50 in experiment [1] and in experiment [2] were 0.001 to 0.1 µM and 2 to 5 µM, respectively.
Regarding `CC(=O)c1c(N)n2ncc(-c3ccc(-c4ccccc4)nc3)c2nc1[C@H]1CC[C@](F)(C(=O)O)CC1` [Compound 16, (1S,4S)-(6-acetyl-7-amino-3-(6-phenylpyridin-3-yl)pyrazolo[1,5-a]pyrimidin-5-yl)-1-fluorocyclohexane-carboxylic acid], the IC50 lay within 0.001 to 0.1 µM in experiment [1] and 1 to 2 µM in experiment [2].
In the same order, the values of `CO[C@]1(CO)CC[C@@H](c2nc3c(-c4ccc(-c5ccccc5)nc4)cnn3c(N)c2C(C)=O)CC1` [Compound 84, 1-(7-amino-5-((1R,4R)-4-(hydroxymethyl)-4-methoxycyclohexyl)-3-(6-phenylpyridin-3-yl)pyrazolo[1,5-a]pyrimidin-6-yl)ethanone] are 0.001 to 0.1 µM and 0.1 to 1 µM.
On to `COCCOC1(CO)CCC(c2nc3c(-c4ccc(-c5ccccc5)nc4)cnn3c(N)c2C(C)=O)CC1` (centres unmarked) [Compound 86, 1-(7-amino-5-(4-(hydroxymethyl)-4-(2-methoxyethoxy)-cyclohexyl)-3-(6-phenylpyridin-3-yl)pyrazolo[1,5-a]pyrimidin-6-yl)ethanone], for which the values for the IC50 in experiment [1] and in experiment [2] were 0.001 to 0.1 µM and 0.1 to 1 µM, respectively.
Turning to `COC[C@]1(C(=O)O)CC[C@@H](c2nc3c(-c4cnc5ccc(F)cc5c4)cnn3c(N)c2Br)CC1` [Compound 8, (1S,4S)-4-(7-amino-6-bromo-3-(6-fluoroquinolin-3-yl)pyrazolo[1,5-a]pyrimidin-5-yl)-1-(methoxymethyl)-cyclohexane-carboxylic acid], the IC50 in experiment [1] lay in the range of 0.001 to 0.1 µM; in experiment [2], 5 to 15 µM.
For `Nc1c(Br)c([C@H]2CC[C@](O)(CC(=O)O)CC2)nc2c(-c3ccc(-c4ccccc4)nc3)cnn12` [Compound 77, 2-((1S,4S)-4-(7-amino-6-bromo-3-(6-phenylpyridin-3-yl)pyrazolo[1,5-a]pyrimidin-5-yl)-1-hydroxycyclohexyl)-acetic acid], the figures for the IC50 in experiment [1] and in experiment [2] were 0.001 to 0.1 µM and 1 to 2 µM, respectively.
With `COC1(C#N)CCC(c2nc3c(-c4ccc(-c5ccccc5)nc4)cnn3c(N)c2Br)CC1` (centres unmarked) [Compound 75, 4-(7-amino-6-bromo-3-(6-phenylpyridin-3-yl)pyrazolo[1,5-a]pyrimidin-5-yl)-1-methoxycyclohexane-carbonitrile], the results for the IC50 in experiment [1] and in experiment [2] were 0.001 to 0.1 µM and 2 to 5 µM, respectively.
In the same order, the values of `COCCO[C@]1(C(=O)NN)CC[C@@H](c2nc3c(-c4cnn(-c5ccccc5)c4)cnn3c(N)c2S(C)(=O)=O)CC1` [Compound 107, (1R,4R)-4-(7-amino-6-(methylsulfonyl)-3-(1-phenyl-1H-pyrazol-4-yl)pyrazolo[1,5-a]pyrimidin-5-yl)-1-(2-methoxyethoxy)-cyclohexane-carbohydrazide] are 0.001 to 0.1 µM and 0.1 to 1 µM.
As for `COCCOC[C@]1(CO)CC[C@H](c2nc3c(-c4ccc(-c5ccccc5)nc4)cnn3c(N)c2Br)CC1` [Compound 168, ((1S,4S)-4-(7-amino-6-bromo-3-(6-phenylpyridin-3-yl)pyrazolo[1,5-a]pyrimidin-5-yl)-1-((2-methoxyethoxy)-methyl)cyclohexyl)-methanol], the IC50 in experiment [1] is 0.001 to 0.1 µM; in experiment [2] it was 1 to 2 µM.
On the same counts, the results for `COCCOC[C@]1(C(=O)O)CC[C@H](c2nc3c(-c4cnn(-c5ccccc5)c4)cnn3c(N)c2Br)CC1` [Compound 13, (1R,4R)-4-(7-amino-6-bromo-3-(1-phenyl-1H-pyrazol-4-yl)pyrazolo[1,5-a]pyrimidin-5-yl)-1-((2-methoxyethoxy)methyl)cyclohexane-carboxylic acid] are 0.001 to 0.1 µM and 5 to 15 µM.
Turning to `COCCOC1(CO)CCC(c2nc3c(-c4cnn(-c5ccccc5)c4)cnn3c(N)c2C(C)=O)CC1` (centres unmarked) [Compound 87, 1-(7-amino-5-(4-(hydroxymethyl)-4-(2-methoxyethoxy)-cyclohexyl)-3-(1-phenyl-1H-pyrazol-4-yl)pyrazolo[1,5-a]pyrimidin-6-yl)ethanone], the values for the IC50 in experiment [1] and in experiment [2] were 0.001 to 0.1 µM and 0.1 to 1 µM, respectively.
Turning to `CC(=O)c1c(C2CCC(O)(CO)CC2)nc2c(-c3cnn(-c4cscn4)c3)cnn2c1N` (single isomer, unassigned) [Compound 152, 1-(7-amino-5-(4-hydroxy-4-(hydroxymethyl)-cyclohexyl)-3-(1-(thiazol-4-yl)-1H-pyrazol-4-yl)pyrazolo[1,5-a]pyrimidin-6-yl)ethanone], the IC50 in experiment [1] lay within 0.001 to 0.1 µM; in experiment [2], 1 to 2 µM.
For `CC(=O)c1c(C2CCC(O)(CO)CC2)nc2c(-c3cnn(-c4ccccc4)c3)cnn2c1N` (centres unmarked) [Compound 141, 1-(7-amino-5-(4-hydroxy-4-(hydroxymethyl)cyclohexyl)-3-(1-phenyl-1H-pyrazol-4-yl)pyrazolo[1,5-a]pyrimidin-6-yl)ethanone], the IC50 in experiment [1] and in experiment [2] was 0.001 to 0.1 µM each time.
Regarding `Nc1c(Br)c([C@H]2CC[C@](OCCN3CCOCC3)(C(=O)O)CC2)nc2c(-c3ccc(-c4ccccc4)nc3)cnn12` [Compound 66, (1S,4S)-4-(7-amino-6-bromo-3-(6-phenylpyridin-3-yl)pyrazolo[1,5-a]pyrimidin-5-yl)-1-(2-morpholinoethoxy) cyclohexanecarboxylic acid], the IC50 in experiment [1] fell in the range of 0.001 to 0.1 µM; in experiment [2] it was 1 to 2 µM.
In the same order, the values of `CO[C@]1(C(=O)O)CC[C@H](c2nc3c(-c4cnc5ccc(F)cc5c4)cnn3c(N)c2Br)CC1` [Compound 32, (1S,4S)-4-(7-amino-6-bromo-3-(6-fluoroquinolin-3-yl)pyrazolo[1,5-a]pyrimidin-5-yl)-1-methoxycyclohexane-carboxylic acid] are 0.001 to 0.1 µM and 0.1 to 1 µM.
